Measurements published in patent US9867795B2, “Nitrated lipids and methods of making and using thereof” (The UAB Research Foundation, priority 2004, dated 2018).

Tested on: human vascular endothelial cells and macrophages
Assay: Whole Human Genome Oligo Array gene expression
Type: cell-based
Set-up: CCNE1 down-regulated / CAMK1 down-regulated / TCF4 down-regulated / PPARGC1B down-regulated / RB1 down-regulated / TNF down-regulated / TYK2 down-regulated / STAT1 down-regulated / CAV3 down-regulated / EDARADD down-regulated / DAPK2 down-regulated / CASP8AP2 down-regulated / ITR down-regulated / RAC2 down-regulated / CDC2 down-regulated / CDC42 down-regulated / CCND3 down-regulated / PLAU down-regulated / EGR2 down-regulated / ADRB2 down-regulated / VASP down-regulated / FDPS down-regulated / IL11 down-regulated / AIF1 down-regulated / TGFB1 down-regulated / PIK3CB down-regulated / PTGS1 down-regulated / IRS1 down-regulated / TIMP2 down-regulated / PTGES2 down-regulated / PDGFRA down-regulated / TLR2 down-regulated / E2F2 down-regulated / RACGAP1 down-regulated / LDLR down-regulated / NCOR2 down-regulated / NCR1 down-regulated / CARD9 down-regulated / SRF down-regulated / PDGFA down-regulated / FLJ23091 down-regulated / BCL2A1 down-regulated / TIMP1 down-regulated / PDGFC down-regulated / TIMP3 down-regulated / ARHGEF1 down-regulated / FN1 down-regulated / MMP19 down-regulated / JUNB down-regulated / PPARD down-regulated / MYLK down-regulated / TGFBI down-regulated / ILK down-regulated / MAPKAPK3 down-regulated / ROCK1 down-regulated / IGF1 down-regulated / VEGFB down-regulated / ECGF1 down-regulated / GADD45A up-regulated / CASP1 up-regulated / CASP4 up-regulated / CCNA1 up-regulated / JUN up-regulated / CASP3 up-regulated / GADD45B up-regulated / AATK up-regulated / AMID up-regulated / IL10RA up-regulated / GADD45G up-regulated / IRS2 up-regulated / HO-1, heme oxygenase-1 up-regulated: dose or concentration left out as unconfirmed
Conditions: 24 hours
Protocol: The nitroalkenes of the present invention also display regulatory actions towards the expression of genes related to inflammatory responses, cell growth, cell differentiation, cell signaling, cell death (apoptosis) and metabolism. For example, nitrolinoleate regulates gene expression in human vascular endothelial cells and macrophages. Cells were stimulated with vehicle and linoleic acid (2.5 μM, the latter two treatments as controls) and LNO2O ([…]) for 24 hours. The total RNA was purified with a Qiagen Kit and analyzed with a Whole Human Genome Oligo Array (G4112A, 41K Genes, Agilent). […] In contrast, the native (precursor) fatty acid, linoleic acid, only regulates 14 genes, with an up-regulation of 5 genes and the down-regulation of 9 genes.

[1] = LNO2O 2.5 mM, linoleic acid 2.5 μM

With “10-nitro-9,12-octadecadienoic acid and 12-nitro-9,12-octadecadienoic acid [LNO2]” the AATK up-regulated was 1.503, the AMID up-regulated was 8.362 and the CASP1 up-regulated was 2.572. It also gave a CASP3 up-regulated of 1.689, a CASP4 up-regulated of 2.57 and a CCNA1 up-regulated of 2.558. The GADD45A up-regulated was 2.823, the GADD45B up-regulated was 1.674 and the GADD45G up-regulated was 3.155. For the same substance, the “HO-1, heme oxygenase-1 up-regulated” value was 4.086, the IL10RA up-regulated was 3.173 and the IRS2 up-regulated was 3.243. The JUN up-regulated was 2.454, the “number of genes down-regulated” value [1] was > 3000 genes and the “number of genes regulated” value [1] was > 5000 genes. The “number of genes up-regulated” value [1] was > 2300 genes, the ADRB2 down-regulated (p < 0.05) was 2.04 fold and the AIF1 down-regulated (p < 0.05) was 3.95 fold. It also gave an ARHGEF1 down-regulated (p < 0.05) of 1.64 fold, a BCL2A1 down-regulated (p < 0.05) of 3.50 fold and a CAMK1 down-regulated (p < 0.05) of 2.24 fold. For the same substance, the CARD9 down-regulated (p < 0.05) was 3.33 fold, the CASP8AP2 down-regulated (p < 0.05) was 1.52 fold and the CAV3 down-regulated (p < 0.05) was 1.76 fold. The CCND3 down-regulated (p < 0.05) was 1.51 fold, the CCNE1 down-regulated (p < 0.05) was 1.58 fold and the CDC2 down-regulated (p < 0.05) was 2.75 fold. The CDC42 down-regulated (p < 0.05) was 1.65 fold, the DAPK2 down-regulated (p < 0.05) was 1.73 fold and the E2F2 down-regulated (p < 0.05) was 3.70 fold. It also gave an ECGF1 down-regulated (p < 0.05) of 1.73 fold, an EDARADD down-regulated (p < 0.05) of 1.69 fold and an EGR2 down-regulated (p < 0.05) of 2.65 fold. For the same substance, the FDPS down-regulated (p < 0.05) was 2.46 fold, the FLJ23091 down-regulated (p < 0.05) was 1.74 fold and the FN1 down-regulated (p < 0.05) was 3.33 fold. It also gave an IGF1 down-regulated (p < 0.05) of 1.54 fold, an IL11 down-regulated (p < 0.05) of 2.02 fold and an ILK down-regulated (p < 0.05) of 2.94 fold. It also gave an IRS1 down-regulated (p < 0.05) of 2.40 fold, an ITR down-regulated (p < 0.05) of 1.68 fold and a JUNB down-regulated (p < 0.05) of 1.60 fold. The LDLR down-regulated (p < 0.05) was 1.77 fold, the MAPKAPK3 down-regulated (p < 0.05) was 2.18 fold and the MMP19 down-regulated (p < 0.05) was 1.58 fold. The MYLK down-regulated (p < 0.05) was 3.13 fold, the NCOR2 down-regulated (p < 0.05) was 1.59 fold and the NCR1 down-regulated (p < 0.05) was 2.30 fold. For the same substance, the PDGFA down-regulated (p < 0.05) was 2.27 fold, the PDGFC down-regulated (p < 0.05) was 1.72 fold and the PDGFRA down-regulated (p < 0.05) was 2.36 fold. The PIK3CB down-regulated (p < 0.05) was 1.93 fold, the PLAU down-regulated (p < 0.05) was 7.58 fold and the PPARD down-regulated (p < 0.05) was 3.12 fold. For the same substance, the PPARGC1B down-regulated (p < 0.05) was 2.20 fold, the PTGES2 down-regulated (p < 0.05) was 1.59 fold and the PTGS1 down-regulated (p < 0.05) was 3.95 fold. It also gave an RAC2 down-regulated (p < 0.05) of 2.47 fold, an RACGAP1 down-regulated (p < 0.05) of 2.35 fold and an RB1 down-regulated (p < 0.05) of 2.06 fold. The ROCK1 down-regulated (p < 0.05) was 1.59 fold, the SRF down-regulated (p < 0.05) was 1.56 fold and the STAT1 down-regulated (p < 0.05) was 1.74 fold. The TCF4 down-regulated (p < 0.05) was 2.63 fold, the TGFB1 down-regulated (p < 0.05) was 2.46 fold and the TGFBI down-regulated (p < 0.05) was 9.80 fold. For the same substance, the TIMP1 down-regulated (p < 0.05) was 3.62 fold, the TIMP2 down-regulated (p < 0.05) was 1.92 fold and the TIMP3 down-regulated (p < 0.05) was 2.27 fold. For the same substance, the TLR2 down-regulated (p < 0.05) was 1.89 fold, the TNF down-regulated (p < 0.05) was 2.01 fold and the TYK2 down-regulated (p < 0.05) was 2.00 fold. For the same substance, the VASP down-regulated (p < 0.05) was 4.85 fold and the VEGFB down-regulated (p < 0.05) was 1.51 fold.
